Results on 3 molecules are retold here after patent US20260297542A1, “HERBICIDE RESISTANT PLANTS” (SYNGENTA CROP PROTECTION AG, priority 2023, published 2026).

Changes are numbered by the printed parent chain.

What all share (test): E. coli hemG growth inhibition by herbicide, AtPPO1 variant
Format in all cases: cell-based
Holding throughout (settings): read-out: percentage growth inhibition

Test [1] deals with T1, AtPPO1 D448L (Arabidopsis thaliana, UniProt P55826, D448L).
T1 construct: expressed in transfected cells; host or cells: E. coli BL21(DE3) hemG, pET24a plasmid
T1 sequence (P55826 35-537 D448L): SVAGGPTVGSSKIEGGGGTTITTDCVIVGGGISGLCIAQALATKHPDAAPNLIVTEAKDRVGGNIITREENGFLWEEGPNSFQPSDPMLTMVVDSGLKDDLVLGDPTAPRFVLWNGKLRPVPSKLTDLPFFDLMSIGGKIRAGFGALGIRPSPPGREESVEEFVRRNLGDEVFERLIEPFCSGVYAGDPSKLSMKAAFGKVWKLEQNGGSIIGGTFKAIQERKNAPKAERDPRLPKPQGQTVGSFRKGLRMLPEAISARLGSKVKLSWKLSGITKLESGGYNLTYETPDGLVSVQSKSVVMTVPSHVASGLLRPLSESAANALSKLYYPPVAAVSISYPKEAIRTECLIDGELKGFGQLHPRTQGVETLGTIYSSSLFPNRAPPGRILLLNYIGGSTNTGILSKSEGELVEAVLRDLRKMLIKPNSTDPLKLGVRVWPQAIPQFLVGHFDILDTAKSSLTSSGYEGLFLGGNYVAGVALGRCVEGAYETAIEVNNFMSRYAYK
Put shortly: (§1)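 AtPPO1 variants from a site-saturation library, codon-optimised and T7-driven in pET24a, were expressed in E. coli BL21(DE3) lacking hemG (hemG replaced by CmR). Growth in Terrific broth with 0.1 mM IPTG plus 6.25 ppm herbicide 0 or E, 0.78 ppm herbicide B, or DMSO was read as OD600 after 24 h at 37° C; inhibition was calculated against the DMSO culture.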

Test [2] concerns the target T2, AtPPO1 G481N (Arabidopsis thaliana, UniProt P55826, G481N).
T2 construct: expressed in transfected cells; host or cells: E. coli BL21(DE3) hemG, pET24a plasmid
T2 sequence (P55826 35-537 G481N): T1 sequence (P55826 35-537 D448L) with L414D, G447N
Put shortly: as §1

The target in test [3] is T3, AtPPO1 K281C (Arabidopsis thaliana, UniProt P55826, K281C).
T3 construct: expressed in transfected cells; host or cells: E. coli BL21(DE3) hemG (hemG replaced by CmR), pET24a plasmid
T3 sequence (P55826 35-537 K281C): T1 sequence (P55826 35-537 D448L) with K247C, L414D
Put shortly:
as §1

Test [4] deals with T4, AtPPO1 R284G (Arabidopsis thaliana, UniProt P55826, R284G).
T4 construct: expressed in transfected cells; host or cells: E. coli BL21(DE3) hemG (pET24a, T7 promoter)
T4 sequence (P55826 35-537 R284G): T1 sequence (P55826 35-537 D448L) with R250G, L414D
Put shortly:
as §1

A word on the inhibition: it is the change of the read-out against control, counted positive when it falls. As for `C#CCN1C(=O)C(F)(F)Oc2cc(F)c(-n3c(=O)n(C)c(=S)n(C)c3=O)cc21` [Herbicide B, trifludimoxazin], the inhibition at 0.78 ppm in test [1] stood at 38%; in test [2] it was 44%; in test [3], 35%; in test [4], 35%.

For the molecule `CCOC(=O)[C@]1(C)CC(c2cc(-n3c(=O)n(C)c(=S)n(C)c3=O)c(F)cc2Cl)=NO1` [Herbicide D, ethyl (5S)-3-[2-chloro-5-(3,5-dimethyl-2,6-dioxo-4-thioxo-1,3,5-triazinan-1-yl)-4-fluoro-phenyl]-5-methyl-4H-isoxazole-5-carboxylate], the inhibition at 6.25 ppm in test [1] amounted to 38%; in test [2], 14%; in test [3], 33%; in test [4], 37%.

In the case of `CC(C)N(C)S(=O)(=O)NC(=O)c1cc(-n2c(=O)cc(C(F)(F)F)n(C)c2=O)c(F)cc1Cl` [Herbicide E, saflufenacil], the inhibition at 6.25 ppm in test [1] came to 54%; in test [2], 4%; in test [3], 54%; in test [4] it was 60%.
